Key:
Assay in all cases: Test C pre/postemergence
Assay type in all cases: in vivo
[1] = test system: kochia (Kochia scoparia); conditions: for Kochia plant response rating: scale 0 to 100 (0 no effect, 100 complete control)
Procedure, shortened: (§1)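 Rating scale 0–100: 0 means no effect, 100 complete control; taken visually 12 to 14 days post-treatment versus controls. Pre- and postemergence greenhouse applications, postemergence at 1- to 4-leaf stage, non-phytotoxic solvent with surfactant as carrier.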

[2] = test system: velvetleaf (Abutilon theophrasti); conditions: for Velvetleaf plant response rating: scale 0 to 100 (0 no effect, 100 complete control)
Procedure, shortened: as §1

[3] = test system: goosegrass (Eleusine indica); conditions: for Goosegrass plant response rating: scale 0 to 100 (0 no effect, 100 complete control)
Procedure, shortened: as §1

[4] = test system: pigweed (Amaranthus retroflexus); conditions: for Pigweed plant response rating: scale 0 to 100 (0 no effect, 100 complete control)
Procedure, shortened: as §1

[5] = test system: cocklebur (Xanthium strumarium); conditions: for Cocklebur plant response rating: scale 0 to 100 (0 no effect, 100 complete control)
Procedure, shortened: as §1

[6] = test system: soybean (Glycine max); conditions: for Soybean plant response rating: scale 0 to 100 (0 no effect, 100 complete control)
Procedure, shortened: as §1

[7] = test system: common (oilseed) sunflower (Helianthus annuus); conditions: Preemergence
Procedure, shortened: as §1

[8] = test system: eastern black nightshade (Solanum ptycanthum); conditions: Preemergence
Procedure, shortened: as §1

[9] = test system: johnsongrass (Sorghum halepense); conditions: for Johnsongrass plant response rating: scale 0 to 100 (0 no effect, 100 complete control)
Procedure, shortened: as §1

[10] = test system: bermudagrass (Cynodon dactylon)
Procedure, shortened: as §1

[11] = test system: common ragweed (Ambrosia elatior); conditions: for Ragweed plant response rating: scale 0 to 100 (0 no effect, 100 complete control)
Procedure, shortened: as §1

[12] = test system: lambsquarters (Chenopodium album); conditions: for Lambsquarters plant response rating: scale 0 to 100 (0 no effect, 100 complete control)
Procedure, shortened: as §1

[13] = Postemergence, 250 g ai/ha, scale 0 to 100
[14] = Postemergence, 500 g ai/ha, scale 0 to 100
[15] = Preemergence, 62 g ai/ha, scale 0 to 100, 0 no effect, 100 complete control
[16] = Preemergence, 125 g ai/ha, scale 0 to 100
[17] = Preemergence, 250 g ai/ha, scale 0 to 100
[18] = Preemergence, 500 g ai/ha, scale 0 to 100
[19] = 62 g ai/ha, scale 0 to 100, 0 no effect, 100 complete control

## CCCOC(=O)c1nc(C2CC2)nc(N)c1Br [Compound 15]
[1]; Postemergence, 62 g ai/ha
  Kochia plant response rating: 95
[1]; Postemergence, 125 g ai/ha
  Kochia plant response rating: 95
[1]; [13]
  Plant response rating, Kochia: 100
[1]; [14]
  Plant response rating, Kochia: 100
[1]; [15]
  Plant response rating, Kochia: 95
[1]; [16]
  Plant response rating, Kochia: 100
[1]; [17]
  Plant response rating, Kochia: 100
[1]; [18]
  Plant response rating, Kochia: 100
[2]; Postemergence, 62 g ai/ha
  Velvetleaf plant response rating: 65
[2]; Postemergence, 125 g ai/ha
  Velvetleaf plant response rating: 70
[2]; [13]
  Plant response rating, Velvetleaf: 85
[2]; [14]
  Plant response rating, Velvetleaf: 90
[2]; [15]
  Plant response rating, Velvetleaf: 80
[2]; [16]
  Plant response rating, Velvetleaf: 95
[2]; [17]
  Plant response rating, Velvetleaf: 100
[2]; [18]
  Plant response rating, Velvetleaf: 100
[3]; Postemergence, 62 g ai/ha
  Goosegrass plant response rating: 0
[3]; Postemergence, 125 g ai/ha
  Goosegrass plant response rating: 0
[3]; [13]
  Plant response rating, Goosegrass: 40
[3]; [14]
  Plant response rating, Goosegrass: 55
[3]; [15]
  Plant response rating, Goosegrass: 0
[3]; [16]
  Plant response rating, Goosegrass: 0
[3]; [17]
  Plant response rating, Goosegrass: 0
[3]; [18]
  Plant response rating, Goosegrass: 0
[4]; Postemergence, 62 g ai/ha
  Pigweed plant response rating: 65
[4]; Postemergence, 125 g ai/ha
  Pigweed plant response rating: 70
[4]; [13]
  Plant response rating, Pigweed: 85
[4]; [14]
  Plant response rating, Pigweed: 100
[4]; [15]
  Plant response rating, Pigweed: 90
[4]; [16]
  Plant response rating, Pigweed: 100
[4]; [17]
  Plant response rating, Pigweed: 100
[4]; [18]
  Plant response rating, Pigweed: 100
[5]; Postemergence, 62 g ai/ha
  Cocklebur plant response rating: 85
[5]; Postemergence, 125 g ai/ha
  Cocklebur plant response rating: 100
[5]; [13]
  Plant response rating, Cocklebur: 100
[5]; [14]
  Plant response rating, Cocklebur: 100
[5]; [15]
  Plant response rating, Cocklebur: 65
[5]; [16]
  Plant response rating, Cocklebur: 90
[5]; [17]
  Plant response rating, Cocklebur: 100
[5]; [18]
  Plant response rating, Cocklebur: 100
[6]; Postemergence, 62 g ai/ha
  Soybean plant response rating: 95
[6]; Postemergence, 125 g ai/ha
  Soybean plant response rating: 95
[6]; [13]
  Plant response rating, Soybean: 95
[6]; [14]
  Plant response rating, Soybean: 100
[6]; [15]
  Plant response rating, Soybean: 75
[6]; [16]
  Plant response rating, Soybean: 90
[6]; [17]
  Plant response rating, Soybean: 95
[6]; [18]
  Plant response rating, Soybean: 100
[7]; [19]
  Plant response rating, Sunflower: 65
[7]; 125 g ai/ha, scale 0 to 100
  Plant response rating, Sunflower: 100
[7]; 250 g ai/ha, scale 0 to 100
  Plant response rating, Sunflower: 100
[7]; 500 g ai/ha, scale 0 to 100
  Plant response rating, Sunflower: 100
[8]; [19]
  Plant response rating, Nightshade: 95
[8]; 125 g ai/ha, scale 0 to 100
  Plant response rating, Nightshade: 100
[8]; 250 g ai/ha, scale 0 to 100
  Plant response rating, Nightshade: 100
[8]; 500 g ai/ha, scale 0 to 100
  Plant response rating, Nightshade: 100
[9]; Postemergence, 62 g ai/ha
  Johnsongrass plant response rating: 20
[9]; Postemergence, 125 g ai/ha
  Johnsongrass plant response rating: 55
[9]; [13]
  Plant response rating, Johnsongrass: 70
[9]; [14]
  Plant response rating, Johnsongrass: 80
[9]; [15]
  Plant response rating, Johnsongrass: 20
[9]; [16]
  Plant response rating, Johnsongrass: 65
[9]; [17]
  Plant response rating, Johnsongrass: 75
[9]; [18]
  Plant response rating, Johnsongrass: 95
[10]; Postemergence, 62 g ai/ha, scale 0 to 100 (0 no effect, 100 complete control)
  Bermudagrass plant response rating: 0
[10]; [13]
  Plant response rating, Bermudagrass: 65
[10]; [14]
  Plant response rating, Bermudagrass: 75
[10]; Postemergence, 125 g ai/ha, scale 0 to 100
  Plant response rating, Bermudagrass: 45
[10]; [15]
  Plant response rating, Bermudagrass: 0
[10]; [16]
  Plant response rating, Bermudagrass: 0
[10]; [17]
  Plant response rating, Bermudagrass: 0
[10]; [18]
  Plant response rating, Bermudagrass: 70
[11]; Postemergence, 62 g ai/ha
  Ragweed plant response rating: 75
[11]; Postemergence, 125 g ai/ha
  Ragweed plant response rating: 85
[11]; [13]
  Plant response rating, Ragweed: 90
[11]; [14]
  Plant response rating, Ragweed: 95
[11]; [15]
  Plant response rating, Ragweed: 90
[11]; [16]
  Plant response rating, Ragweed: 95
[11]; [17]
  Plant response rating, Ragweed: 100
[11]; [18]
  Plant response rating, Ragweed: 100
[12]; Postemergence, 62 g ai/ha
  Lambsquarters plant response rating: 100
[12]; Postemergence, 125 g ai/ha
  Lambsquarters plant response rating: 100
[12]; [13]
  Plant response rating, Lambsquarters: 100
[12]; [14]
  Plant response rating, Lambsquarters: 100
[12]; [15]
  Plant response rating, Lambsquarters: 95
[12]; [16]
  Plant response rating, Lambsquarters: 100
[12]; [17]
  Plant response rating, Lambsquarters: 100
[12]; [18]
  Plant response rating, Lambsquarters: 100
